Source: ChEMBL document CHEMBL3044825, “Synthesis and in vitro microbial activities of amides of pyridoquinolone” (2011)

What was measured:
Assay type in all cases: functional
Conditions in all cases: read-out: IZ
Candida albicans = assay: Antifungal activity against Candida albicans at 100 ug/ml by cup-plate method
Bacillus subtilis = assay: Antibacterial activity against Bacillus subtilis at 100 ug/ml by cup plate method
Staphylococcus aureus = assay: Antibacterial activity against Staphylococcus aureus at 100 ug/ml by cup-plate method
Pseudomonas aeruginosa = assay: Antibacterial activity against Pseudomonas aeruginosa at 100 ug/ml by cup-plate method
Escherichia coli = assay: Antibacterial activity against Escherichia coli at 100 ug/ml by cup-plate method

Compound	zone of inhibition at 100 µg/mL (Candida albicans) [mm]	zone of inhibition at 100 µg/mL (Bacillus subtilis) [mm]	zone of inhibition at 100 µg/mL (Staphylococcus aureus) [mm]	zone of inhibition at 100 µg/mL (Pseudomonas aeruginosa) [mm]	zone of inhibition at 100 µg/mL (Escherichia coli) [mm]
O=C(NC(=S)Nc1ccccc1[N+](=O)[O-])c1cn(CCO)c2c(cc(O)c3ncccc32)c1=O	1	5	0	4	5
Cc1ccc(NC(=S)NC(=O)c2cn(CCO)c3c(cc(O)c4ncccc43)c2=O)cc1	1	6	0	4	6
O=C(NC(=S)Nc1cccc(O)c1)c1cn(CCO)c2c(cc(Cl)c3ncccc32)c1=O	2	9	8	6	8
COc1ccc(NC(=S)NC(=O)c2cn(CCO)c3c(cc(Cl)c4ncccc43)c2=O)cc1	2	9	8	6	8
O=C(NC(=S)Nc1cccc([N+](=O)[O-])c1)c1cn(CCO)c2c(cc(Cl)c3ncccc32)c1=O	1	6	8	8	0
N#Cc1cc([N+](=O)[O-])ccc1NS(=O)(=O)c1ccc(NC(=O)c2cn(CCO)c3c(cc(Cl)c4ncccc43)c2=O)cc1	2	9	8	8	8
COc1ccccc1NS(=O)(=O)c1ccc(NC(=O)c2cn(CCO)c3c(cc(O)c4ncccc43)c2=O)cc1	1	8	6	6	0
O=C(Nc1ccc(S(=O)(=O)Nc2cccc([N+](=O)[O-])c2)cc1)c1cn(CCO)c2c(cc(O)c3ncccc32)c1=O	2	8	8	7	8
N#Cc1cc([N+](=O)[O-])ccc1NS(=O)(=O)c1ccc(NC(=O)c2cn(CCO)c3c(cc(O)c4ncccc43)c2=O)cc1	2	6	8	8	6
O=C(Nc1cccc([N+](=O)[O-])c1)c1cn(CCO)c2c(cc(O)c3ncccc32)c1=O	2	8	7	10	8
Cc1ccc(C)c(NC(=O)c2cn(CCO)c3c(cc(O)c4ncccc43)c2=O)c1	2	9	8	8	9
O=C(Nc1ccc(S(=O)(=O)Nc2ccccc2)cc1)c1cn(CCO)c2c(cc(Cl)c3ncccc32)c1=O	2	10	8	7	6
O=C(Nc1ccc(S(=O)(=O)Nc2cccc([N+](=O)[O-])c2)cc1)c1cn(CCO)c2c(cc(Cl)c3ncccc32)c1=O	2	8	6	5	7
COc1ccc(NC(=O)c2cn(CCO)c3c(cc(Cl)c4ncccc43)c2=O)cc1	2	6	6	6	0
